In patent US10988737B2, “Clinical gene signature-based human cell culture model and uses thereof” (priority 2015, dated 2021):
Entries after “also recorded” stand apart in the source; their conditions may differ.

How the values were obtained:
ERK1/2 = assay: Proteome Profiler Human Phospho-kinase Array in HCV-infected liver cells; format: cell-based; conditions: low inhibitor concentrations
Experimental: Proteomic Analyses. For proteomic analyses, Huh7.5.1^dif cells that had undergone DMSO-mediated differentiation, were infected with HCV Jc1E2^FLAG (TCID50=10^7/mL) as described above. On day 7, receptor tyrosine kinase (RTK) phosphorylation was assessed in cell lysates using the Human Phospho-RTK Array Kit as previously described (Lupberger et al., Nat. Med., 2011, 17: 589-595; and Zona et al., Cell Host Microbe, 2013, 13: 302-313). The effect of MAPK inhibitors on signaling was confirmed using the Proteome Profiler Human Phospho-kinase Array according to manufacturer's instructions (R&D Systems). Amounts of phospho-proteins were assessed using a horseradish peroxidase-conjugated pan-phospho-tyrosine-specific antibody (R&D Systems, Minneapolis, Minn., USA) followed by chemiluminescence detection (GE Healthcare, Cleveland, Ohio, USA) according to manufacturer's instructions. The relative dot-blot density of the phosphorylated proteins in HCV Jc1E2^FLAG infected samples compared to non-infected controls was quantified using Image J software (NIH) by elliptical selection of individual dots and measuring standard deviation and integrated density.

HCV Jc1 = assay: HCV viral load in HCV Jc1-infected Huh7.5.1dif cells (qRT-PCR of intracellular HCV RNA); format: cell-based; conditions: for effect on HCV viral load: HCV-infected Huh7.5.1dif cells, at the concentrations that suppress the signature
Experimental: HCV Infection of Huh7.5.1^dif cells. Cell culture-derived HCVcc Jc1 (genotype 2a/2a) (Pietschmann et al., PNAS USA, 2006, 103: 7408-7413) were generated in Huh7.5.1 cells as previously described (Wakita et al., Nat. Med., 2005, 11: 791-796). HCV Jc1E2^FLAG was purified using anti-FLAG M2 affinity gel (Sigma-Aldrich, St.Louis, Mo., USA) as described (Merz et al., J. Biol. Chem., 2011, 286: 3018-3032). HCVcc infectivity was determined by calculating the 50% tissue culture infectious doses (TCID50) as previously described (Lindenbach et al., Science, 2005, 309: 623-626). Huh7.5.1^dif cells were infected with HCV Jc1 or HCV Jc1E2^FLAG. Cell culture supernatants from mock-electroporated cells or 100 μg/mL of FLAG peptide were used for control experiments. HCV infection was assessed by qRT-PCR of intracellular HCV RNA (Xiao et al., PLoS Pathog., 2014, 10: e1004128) as well as immunostaining using HCV E2-specific AP33 antibody as previously described (Krieger et al., Hepatology, 2010, 51: 1144-1157).

[1] = test system: HCC risk signature in HCV Jc1-infected Huh7.5.1^dif cells; assay: HCC risk signature in HCV Jc1-infected Huh7.5.1dif cells after antiviral or EGFR/MAPK pathway inhibitor treatment; format: cell-based, human; conditions: three days treatment from day 7 post-infection
Experimental: HCV Infection of Huh7.5.1^dif cells. […] Huh7.5.1^dif cells were infected with HCV Jc1 or HCV Jc1E2^FLAG. […] HCV infection was assessed by qRT-PCR of intracellular HCV RNA (Xiao et al., PLoS Pathog., 2014, 10: e1004128) as well as immunostaining using HCV E2-specific AP33 antibody as previously described (Krieger et al., Hepatology, 2010, 51: 1144-1157).
Transcriptional Analyses. Liver cells were lysed in TRI-reagent (Molecular Research Center; Cincinnati, Ohio, USA), and RNA was purified using Direct-zol RNA MiniPrep (Zymo Research, Irvine, Calif., USA) according to manufacturer's instructions. RNA quantity and RNA quality were assessed using NanoDrop (Thermo Scientific, Waltham, Mass., USA) and Bioanalyzer 2100 (IIlumina, San Diego, Calif., USA) with a quality cut-off of RNA Integrity Number >8. […] Gene expression profiling was performed using 250-500 ng total RNA by using either NCOUNTER Digital Analyzer system (NanoString) or the HumanHT-12 beadarray (Illumina, San Diego, Calif., USA). HCC high risk gene expression was analyzed by qRT-PCR using specific TaqMan Gene Expression Assays (Life Technologies, Carlsbad, Calif., USA) or the ANXA3 and GPX2 primer sets previously described (Pan et al., Stem Cells, 2015, 33: 354-366 and Brault et al., Gut, 2014, 65: 44-54, respectively). The expression of GAPDH mRNA was analyzed as a reference gene using a specific TaqMan Gene Expression Assay (Life Technologies, Carlsbad, Calif., USA) or the RT2 qPCR Primer Assay (Qiagen, Hilden, Germany). Relative gene expression level was calculated by the ΔΔCt method as previously described (Schmittgen et al., Nat. Protoc., 2008, 3: 1101-1108).
Bioinformatics. Induction or suppression of HCC risk signature in HumanHT-12 beadarray (Illumina, San Diego, Calif., USA) data was determined as previously reported by using Nearest Template Prediction algorithm and Gene Set Enrichment Analysis (GSEA), implemented in GenePattern genomic analysis toolkits (Subramanian et al., PNAS USA, 2005, 102: 15545-15550; Hoshida, PLoS One, 2010, 5: e15543; Reich et al., Nat. Genet., 2006, 38: 500-501). Molecular pathway deregulations were determined in Molecular Signature Database (MSigDB, ver.4.0) (Liberzon et al., Bioinformatics, 2011, 27: 1739-1740) using GSEA (Subramanian et al., PNAS USA, 2005, 102: 15545-15550).

[2] = test system: PLS/HCC high risk genes in HCV-infected or ethanol exposed Huh7.5.1^dif cells or HBV-infected HepG2-NTCP cells; assay: Epigenetic inhibitors: 32-gene PLS/HCC risk signature in infected or ethanol-treated liver cells; format: cell-based, human; conditions: iBET 0.05 μM, WDR5-0103 100 μM
Experimental: HCV infection was assessed at day 10 by qRT-PCR of intracellular RNA as described (Xiao et al., PLoS pathogens. 2014, 10(5): e1004128).
(§1) HBV infection was assessed at day 10 post-infection by qRT-PCR quantification of HBV pregenomic RNA (pgRNA) as described in (Verrier et al., Hepatology, 2015, 63: 35-48).
Fresh medium containing ethanol and antibodies was replenished daily (Ye et al., Drug Alcohol Depend., 2010, 112: 107-116).
(§2) Transcriptional analyses. Ten days after HCV Jc1 and HBV infection or ethanol exposure, cultures were lysed using TRI-reagent (MRC) and RNA purified using the Directzol mini kit (Zymo Research). Gene expression profiling was performed using 250-500 ng total RNA by using either NCOUNTER Digital Analyzer system (NanoString) or high throughput qRT-PCR Biomark HD (Baker, Nature Meth., 2012, 9: 541-544) […]. Induction or suppression of HCC risk signature was determined by Gene Set Enrichment Analysis (GSEA), implemented in GenePattern genomic analysis toolkits.

[3] = test system: HCC high-risk genes in human fibrotic liver tissue; assay: Organotypic ex vivo culture of surgically resected human fibrotic liver tissue slices, PLS/HCC risk signature by GSEA; format: cell-based; conditions: erlotinib 5 μM, pioglitazone 10 μM
Experimental: Liver Slices. Fresh liver tissue sections (300 μm-thick) were prepared from surgically resected fibrotic livers from HCC patients using Krumdieck Tissue Slicer MD6000 (Alabama Research and Development, Munford, Ala., USA).
Transcriptional Analyses. Liver cells were lysed in TRI-reagent (Molecular Research Center; Cincinnati, Ohio, USA), and RNA was purified using Direct-zol RNA MiniPrep (Zymo Research, Irvine, Calif., USA) according to manufacturer's instructions. RNA quantity and RNA quality were assessed using NanoDrop (Thermo Scientific, Waltham, Mass., USA) and Bioanalyzer 2100 ([…]) with a quality cut-off of RNA Integrity Number >8. […] HCC high risk gene expression was analyzed by qRT-PCR using specific TaqMan Gene Expression Assays (Life Technologies, Carlsbad, Calif., USA) or the ANXA3 and GPX2 primer sets previously described (Pan et al., Stem Cells, 2015, 33: 354-366 and Brault et al., Gut, 2014, 65: 44-54, respectively). The expression of GAPDH mRNA was analyzed as a reference gene using a specific TaqMan Gene Expression Assay (Life Technologies, Carlsbad, Calif., USA) or the RT2 qPCR Primer Assay (Qiagen, Hilden, Germany). Relative gene expression level was calculated by the ΔΔCt method as previously described (Schmittgen et al., Nat. Protoc., 2008, 3: 1101-1108). […]

[4] = test system: PLS/HCC high risk genes in HBV-infected HepG2-NTCP cells; assay: Epigenetic inhibitors: 32-gene PLS/HCC risk signature in HBV-infected HepG2-NTCP cells; format: cell-based; conditions: only in HBV infected cells; C646 10 μM
Experimental: as §1, §2

Compound	effect on HCV viral load (HCV Jc1)	HCC high-risk gene expression [1]	PLS/HCC high risk gene expression [2]	other results
Nc1[nH]nc2nnc(-c3c(-c4ccccc4)nn4ccccc34)cc12 [Fr180204]	absent effects	suppressed	–	ERK1/2 phosphorylation (virus-induced MAPK signaling) (ERK1/2): reduced
iBET	–	–	suppressed	–
Interferon-alpha 2a	–	partial suppression	–	decrease of viral load (HCV Jc1; HCV Jc1-infected Huh7.5.1dif cells, three days treatment from day 7, 10 IU/mL interferon-alpha 2a or 1 nM daclatasvir + 1 μM sofosbuvir): about 100 fold; HCC low-risk gene expression [1]: restoration
COC(=O)c1ccc(N2CCN(C)CC2)c(NC(=O)c2cccc(OC)c2)c1 [WDR5-0103]	–	–	suppressed	–
C#Cc1cccc(Nc2ncnc3cc(OCCOC)c(OCCOC)cc23)c1 [Erlotinib]	did not modify	suppressed	–	PLS / HCC high-risk genes in ex vivo liver tissue [3]: effectively suppress; also recorded: reverted
CC1=NN(c2ccc(C(=O)O)cc2)C(=O)/C1=C\c1ccc(-c2cc(C)c(C)cc2[N+](=O)[O-])o1 [C646]	–	–	–	PLS/HCC high risk genes [4]: suppressed
